Measured values: paper PMC4131897 (Biochemistry, 2014)
Numbering of substitutions follows the chain as printed.

Assays:
Assay in all cases: intrinsic tryptophan fluorescence quenching
Format in all cases: binding
[1] = target: T1, BjPutA (proline utilization A) (Bradyrhizobium diazoefficiens, UniProt Q89E26, D779A)
T1 sequence (Q89E26 1-999 D779A): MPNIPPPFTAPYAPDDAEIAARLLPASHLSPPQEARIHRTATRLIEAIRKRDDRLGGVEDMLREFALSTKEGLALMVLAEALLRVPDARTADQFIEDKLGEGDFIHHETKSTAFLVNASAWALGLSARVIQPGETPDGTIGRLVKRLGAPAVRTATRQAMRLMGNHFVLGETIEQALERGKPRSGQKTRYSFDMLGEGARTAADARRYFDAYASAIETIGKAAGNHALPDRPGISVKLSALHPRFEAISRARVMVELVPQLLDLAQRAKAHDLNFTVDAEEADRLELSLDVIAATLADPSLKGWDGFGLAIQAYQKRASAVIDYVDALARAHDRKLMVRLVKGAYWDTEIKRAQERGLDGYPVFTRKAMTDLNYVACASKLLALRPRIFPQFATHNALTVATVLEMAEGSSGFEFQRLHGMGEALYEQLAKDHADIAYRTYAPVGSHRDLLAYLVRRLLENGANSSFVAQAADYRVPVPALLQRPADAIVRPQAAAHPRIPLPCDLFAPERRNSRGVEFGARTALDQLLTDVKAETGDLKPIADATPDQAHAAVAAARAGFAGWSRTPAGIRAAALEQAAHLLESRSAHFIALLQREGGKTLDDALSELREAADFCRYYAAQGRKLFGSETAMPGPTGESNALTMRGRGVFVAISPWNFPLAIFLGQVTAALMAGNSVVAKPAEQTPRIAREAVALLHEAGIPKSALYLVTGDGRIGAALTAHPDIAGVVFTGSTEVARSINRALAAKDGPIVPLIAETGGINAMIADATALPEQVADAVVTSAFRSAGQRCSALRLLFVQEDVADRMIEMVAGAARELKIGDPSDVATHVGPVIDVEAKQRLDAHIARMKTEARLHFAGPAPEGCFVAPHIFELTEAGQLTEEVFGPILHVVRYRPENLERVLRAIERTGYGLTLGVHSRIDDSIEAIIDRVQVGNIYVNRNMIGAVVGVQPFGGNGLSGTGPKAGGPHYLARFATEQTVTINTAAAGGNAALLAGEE

[2] = target: T2, BjPutA (proline utilization A) (Bradyrhizobium diazoefficiens, UniProt Q89E26, D779Y)
T2 sequence (Q89E26 1-999 D779Y): T1 sequence (Q89E26 1-999 D779A) with A779Y

[3] = target: T3, BjPutA (proline utilization A) (Bradyrhizobium diazoefficiens, UniProt Q89E26, S607Y)
T3 sequence (Q89E26 1-999 S607Y): T1 sequence (Q89E26 1-999 D779A) with S607Y, A779D

Kd [1]: 640 ± 50 nM
Kd [2]: 650 ± 40 nM
Kd [3]: 1000 ± 40 nM
SMILES: NC(=O)c1ccc[n+]([C@@H]2O[C@H](COP(=O)(O)OP(=O)(O)OC[C@H]3O[C@@H](n4cnc5c(N)ncnc54)[C@H](O)[C@@H]3O)[C@@H](O)[C@H]2O)c1 [NAD^+]
